These results are taken from patent US20070010489A1 (priority 2002, published 2007).

One may read the IC50 as the point on the concentration scale where inhibition reaches its midpoint.

Data set [1] concerns Recombinant HIV-1 Strains With Resistance Mutations in the Protease Gene. The data set can be described thus: Cross-Resistance Profile Assay, whole panel. Type of data set: cell-based. As to conditions: resistance = 5-fold and higher change in EC50 vs wild type; 11 mutant viruses.
In data set [2] the test system is PBMC in human whole blood.
In data set [3] the test system is mutant HIV-1 with I84V/L90M mutations. The data set can be described thus: microbe, parasite or virus in culture. It is filed as cell-based.
In another data set the test system is WT HIV-1. In words: microbe, parasite or virus in culture. The settings on record: Human immunodeficiency virus 1, read-out: Cell-based assay (MT-4) EC50/nM WT.
In data set [4] the test system is recombinant HIV-1 10I/48V/54V/82A. The data set can be described thus: microbe, parasite or virus in culture. As to conditions: Human immunodeficiency virus 1, read-out: Cell-based assay (MT-4) EC50/nM 48V54V82A. It is filed as cell-based.
Data set [5] relates to recombinant HIV-1 46I/47V/50V. In words: microbe, parasite or virus in culture. It is filed as cell-based. As to conditions: Human immunodeficiency virus 1, read-out: Cell-based assay (MT-4) EC50/nM 46I50V.
For data set [6], the system named is recombinant HIV-1 30N/50S/82I/88D. In words: microbe, parasite or virus in culture. It is filed as cell-based. The settings on record: Human immunodeficiency virus 1, read-out: Cell-based assay (MT-4) EC50/nM 30N82I88D.
The subject of data set [7] is recombinant HIV-1 10I/48V/71V/82A/90M. In words: microbe, parasite or virus in culture. The settings on record: Human immunodeficiency virus 1, read-out: Cell-based assay (MT-4) EC50/nM 48V82A90M. Type of data set: cell-based.
The test system of data set [8] is recombinant HIV-1 48V/54V/71V/82S. In words: microbe, parasite or virus in culture. It is filed as cell-based. The settings on record: Human immunodeficiency virus 1, read-out: Cell-based assay (MT-4) EC50/nM 48V54V82S.
The target in another data set is 84V90M (Human immunodeficiency virus type 1 group M subtype B, UniProt P04585, I572V/L578M). In words: biochemical. It is filed as biochemical, HIV. The settings on record: Enzymatic assay.
A further data set is described as follows: in vitro. As to conditions: human, CC50 (μM).

Consider `CCOC(=O)C(C)NP(=O)(COc1ccc(CC(NC(=O)OC2COC3OCCC23)C(O)CN(CC(C)C)S(=O)(=O)c2ccc(OC)cc2)cc1)Oc1ccccc1` (stereo not drawn) [GS-16571], for which the “Total No. of Resistant Viruses” value in data set [1] is 0. In addition, in [2], the “Major Intracellular Metabolites” value is “X,GS-8373”.
Consider `CCOP(=O)(CCNC(=O)Oc1ccc(CC2C(O)C(O)C(Cc3ccc(OC)cc3)N(Cc3cccc(N)c3)C(=O)N2Cc2cccc(N)c2)cc1)OCC` (stereo not drawn) [OCH3, Ph-mNH2, OCONH(CH2)2PO3Et2], for which the EC50 in [3] (Human immunodeficiency virus 1, read-out: Cell-based assay (MT-4) EC50/nM 84V90M) is 2260 nM; with WT HIV-1 it was 74 nM; in data set [4], 262 nM; in data set [5], 184 nM; in [6] it was 77 nM; in [7], 215 nM. The EC50 in [8] was determined as 214 nM. At 84V90M, this compound registered an IC50 of 116 nM.
For `CCOP(=O)(COc1ccc(CC(NC(=O)OC2COC3OCCC23)C(O)CN(CC(C)C)S(=O)(=O)c2ccc(OC)cc2)cc1)OCC` (stereo not drawn) [drawing 1768 R1=OEt R2=OEt], the I84V/L90M fold change result in data set [3] (fold difference in EC50 mutant vs wild type, class symbols) is listed as “− (≦3)”. In addition, in the data set “in vitro”, the CC50 lay within 5 to 50 µM.
